Data taken from PubChem BioAssay AID2060488 (Molecular Pharmacology Branch, DTP, NCI, 2025).

Test system: 966289-007-R4-J1-PDC complex spheroid viability
Assay: Anticancer human tumor 966289-007-R4-J1-PDC patient-derived pancreatic adenocarcinoma cell line growth inhibition [GQUAD]
Conditions: for IC50: curve of first compound; for viability, T/C: stronger effect = lower value
Summary of the method: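 Tumor cells were grown as complex spheroids with HUVEC endothelial cells and mesenchymal stem cells as stroma. G-quadruplex stabilizers were combined with targeted agents over half-log dilutions from near the clinical Cmax, or from 10 microM.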

[1] = second compound 0.0316 µM, first compound 0.0316 µM
[2] = second compound 0.0316 µM, first compound 0.1 µM
[3] = second compound 0.0316 µM, first compound 0.316 µM
[4] = second compound 0.0316 µM, first compound 1 µM
[5] = second compound 0.0316 µM, first compound 3.16 µM
[6] = second compound 0.0316 µM, first compound 10 µM
[7] = second compound 0.1 µM, first compound 0.0316 µM
[8] = second compound 0.1 µM, first compound 0.1 µM
[9] = second compound 0.1 µM, first compound 0.316 µM
[10] = second compound 0.1 µM, first compound 1 µM
[11] = second compound 0.1 µM, first compound 3.16 µM
[12] = second compound 0.1 µM, first compound 10 µM
[13] = second compound 0.316 µM, first compound 0.0316 µM
[14] = second compound 0.316 µM, first compound 0.1 µM
[15] = second compound 0.316 µM, first compound 0.316 µM
[16] = second compound 0.316 µM, first compound 1 µM
[17] = second compound 0.316 µM, first compound 3.16 µM
[18] = second compound 0.316 µM, first compound 10 µM
[19] = second compound 1 µM, first compound 0.0316 µM
[20] = second compound 1 µM, first compound 0.1 µM
[21] = second compound 1 µM, first compound 0.316 µM
[22] = second compound 1 µM, first compound 1 µM
[23] = second compound 1 µM, first compound 3.16 µM
[24] = second compound 1 µM, first compound 10 µM
[25] = second compound 3.16 µM, first compound 0.0316 µM
[26] = second compound 3.16 µM, first compound 0.1 µM
[27] = second compound 3.16 µM, first compound 0.316 µM
[28] = second compound 3.16 µM, first compound 1 µM
[29] = second compound 3.16 µM, first compound 3.16 µM
[30] = second compound 3.16 µM, first compound 10 µM
[31] = second compound 10 µM, first compound 0.0316 µM
[32] = second compound 10 µM, first compound 0.1 µM
[33] = second compound 10 µM, first compound 0.316 µM
[34] = second compound 10 µM, first compound 1 µM
[35] = second compound 10 µM, first compound 3.16 µM
[36] = second compound 10 µM, first compound 10 µM
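Also: spheroids exposed to the agents for seven days before readout.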
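For viability, T/C in this document: percent viability relative to DMSO vehicle control wells taken as 100%.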

## CC(C)n1c(=O)n(C)c2cnc3cc(F)c(-c4ccc(OCCCN5CCCCC5)nc4)cc3c21 + Cc1cnc(CNC(=O)c2c(=O)c3ccc(N4CCCN(C)CC4)nc3n3c2sc2ccccc23)cn1
Second compound 0.0316 µM
  IC50: < 31.6 nM
Second compound 0.1 µM
  IC50: < 31.6 nM
Second compound 0.316 µM
  IC50: < 31.6 nM
Second compound 1 µM
  IC50: < 31.6 nM
Second compound 3.16 µM
  IC50: < 31.6 nM
Second compound 10 µM
  IC50: < 31.6 nM
[1]
  viability, T/C: 36.8%
[2]
  viability, T/C: 18.8%
[3]
  viability, T/C: 21.1%
[4]
  viability, T/C: 15.4%
[5]
  viability, T/C: 33.4%
[6]
  viability, T/C: 31.6%
[7]
  viability, T/C: 10.5%
[8]
  viability, T/C: 7.68%
[9]
  viability, T/C: 8.96%
[10]
  viability, T/C: 9.72%
[11]
  viability, T/C: 12.6%
[12]
  viability, T/C: 17.9%
[13]
  viability, T/C: 6.19%
[14]
  viability, T/C: 6.34%
[15]
  viability, T/C: 5.97%
[16]
  viability, T/C: 6.08%
[17]
  viability, T/C: 7.07%
[18]
  viability, T/C: 8.93%
[19]
  viability, T/C: 3.82%
[20]
  viability, T/C: 4.77%
[21]
  viability, T/C: 3.79%
[22]
  viability, T/C: 4.54%
[23]
  viability, T/C: 5.48%
[24]
  viability, T/C: 5.76%
[25]
  viability, T/C: 1.67%
[26]
  viability, T/C: 2.31%
[27]
  viability, T/C: 1.96%
[28]
  viability, T/C: 2.66%
[29]
  viability, T/C: 3.94%
[30]
  viability, T/C: 3%
[31]
  viability, T/C: 0.09%
[32]
  viability, T/C: 0.12%
[33]
  viability, T/C: 0.27%
[34]
  viability, T/C: 0.16%
[35]
  viability, T/C: 0.16%
[36]
  viability, T/C: 0.15%

## CC1COCCN1c1cc(-c2ccnn2C)c2ccnc(-c3ccn[nH]3)c2n1 (stereo not given) + Cc1cnc(CNC(=O)c2c(=O)c3ccc(N4CCCN(C)CC4)nc3n3c2sc2ccccc23)cn1
Second compound 0.0316 µM
  IC50: < 31.6 nM
Second compound 0.1 µM
  IC50: < 31.6 nM
Second compound 0.316 µM
  IC50: < 31.6 nM
Second compound 1 µM
  IC50: < 31.6 nM
Second compound 3.16 µM
  IC50: < 31.6 nM
Second compound 10 µM
  IC50: < 31.6 nM
[1]
  viability, T/C: 24.3%
[2]
  viability, T/C: 6.05%
[3]
  viability, T/C: 4.12%
[4]
  viability, T/C: 4.23%
[5]
  viability, T/C: 3.36%
[6]
  viability, T/C: 2.9%
[7]
  viability, T/C: 6.63%
[8]
  viability, T/C: 3.84%
[9]
  viability, T/C: 4.03%
[10]
  viability, T/C: 4.94%
[11]
  viability, T/C: 3.73%
[12]
  viability, T/C: 3.29%
[13]
  viability, T/C: 7.42%
[14]
  viability, T/C: 5.9%
[15]
  viability, T/C: 5.46%
[16]
  viability, T/C: 5.36%
[17]
  viability, T/C: 3.91%
[18]
  viability, T/C: 3.35%
[19]
  viability, T/C: 5.44%
[20]
  viability, T/C: 5.41%
[21]
  viability, T/C: 6.4%
[22]
  viability, T/C: 6.38%
[23]
  viability, T/C: 5.26%
[24]
  viability, T/C: 3.91%
[25]
  viability, T/C: 3.88%
[26]
  viability, T/C: 3.62%
[27]
  viability, T/C: 4.85%
[28]
  viability, T/C: 5.21%
[29]
  viability, T/C: 6.21%
[30]
  viability, T/C: 4.16%
[31]
  viability, T/C: 0.03%
[32]
  viability, T/C: 0.07%
[33]
  viability, T/C: 0.1%
[34]
  viability, T/C: 0.08%
[35]
  viability, T/C: 0.11%
[36]
  viability, T/C: 0.15%

## CC1COCCN1c1cc(C2(O)CC3CCC(C2)O3)c2cnn(-c3ccn[nH]3)c2n1 (stereo not given) + Cc1cnc(CNC(=O)c2c(=O)c3ccc(N4CCCN(C)CC4)nc3n3c2sc2ccccc23)cn1
Second compound 0.0316 µM
  IC50: < 31.6 nM
Second compound 0.1 µM
  IC50: < 31.6 nM
Second compound 0.316 µM
  IC50: < 31.6 nM
Second compound 1 µM
  IC50: < 31.6 nM
Second compound 3.16 µM
  IC50: < 31.6 nM
Second compound 10 µM
  IC50: < 31.6 nM
[1]
  viability, T/C: 17.9%
[2]
  viability, T/C: 6.32%
[3]
  viability, T/C: 6.87%
[4]
  viability, T/C: 4.01%
[5]
  viability, T/C: 4.28%
[6]
  viability, T/C: 3.82%
[7]
  viability, T/C: 8.59%
[8]
  viability, T/C: 4.79%
[9]
  viability, T/C: 5.61%
[10]
  viability, T/C: 4.59%
[11]
  viability, T/C: 3.77%
[12]
  viability, T/C: 3.82%
[13]
  viability, T/C: 6.96%
[14]
  viability, T/C: 6.64%
[15]
  viability, T/C: 7.05%
[16]
  viability, T/C: 5.35%
[17]
  viability, T/C: 4.24%
[18]
  viability, T/C: 3.79%
[19]
  viability, T/C: 5.69%
[20]
  viability, T/C: 6.03%
[21]
  viability, T/C: 7.24%
[22]
  viability, T/C: 5.15%
[23]
  viability, T/C: 5.42%
[24]
  viability, T/C: 4.18%
[25]
  viability, T/C: 4.9%
[26]
  viability, T/C: 5.03%
[27]
  viability, T/C: 5.23%
[28]
  viability, T/C: 5.64%
[29]
  viability, T/C: 5.02%
[30]
  viability, T/C: 3.38%
[31]
  viability, T/C: 0.04%
[32]
  viability, T/C: 0.08%
[33]
  viability, T/C: 0.11%
[34]
  viability, T/C: 0.07%
[35]
  viability, T/C: 0.15%
[36]
  viability, T/C: 0.14%

## Cc1cccc(N(C)C(=O)C2C(O)CCN2c2nc(C)cc(C(F)(F)F)c2C#N)c1 (stereo not given) + Cc1cnc(CNC(=O)c2c(=O)c3ccc(N4CCCN(C)CC4)nc3n3c2sc2ccccc23)cn1
Second compound 0.0316 µM
  IC50: > 10000 nM
Second compound 0.1 µM
  IC50: < 31.6 nM
Second compound 0.316 µM
  IC50: < 31.6 nM
Second compound 1 µM
  IC50: < 31.6 nM
Second compound 3.16 µM
  IC50: < 31.6 nM
Second compound 10 µM
  IC50: < 31.6 nM
[1]
  viability, T/C: 111%
[2]
  viability, T/C: 102%
[3]
  viability, T/C: 103%
[4]
  viability, T/C: 102%
[5]
  viability, T/C: 110%
[6]
  viability, T/C: 106%
[7]
  viability, T/C: 40.1%
[8]
  viability, T/C: 30.9%
[9]
  viability, T/C: 36.3%
[10]
  viability, T/C: 34.9%
[11]
  viability, T/C: 36.2%
[12]
  viability, T/C: 40.1%
[13]
  viability, T/C: 12.1%
[14]
  viability, T/C: 11.4%
[15]
  viability, T/C: 10.2%
[16]
  viability, T/C: 13.8%
[17]
  viability, T/C: 12.7%
[18]
  viability, T/C: 13.3%
[19]
  viability, T/C: 6.47%
[20]
  viability, T/C: 6.97%
[21]
  viability, T/C: 7.01%
[22]
  viability, T/C: 6.54%
[23]
  viability, T/C: 6.3%
[24]
  viability, T/C: 7.05%
[25]
  viability, T/C: 5.3%
[26]
  viability, T/C: 4.93%
[27]
  viability, T/C: 4.77%
[28]
  viability, T/C: 5.55%
[29]
  viability, T/C: 5.79%
[30]
  viability, T/C: 5.35%
[31]
  viability, T/C: 0.13%
[32]
  viability, T/C: 0.18%
[33]
  viability, T/C: 0.17%
[34]
  viability, T/C: 0.17%
[35]
  viability, T/C: 0.51%
[36]
  viability, T/C: 0.38%

## O=C(c1cc(Cc2n[nH]c(=O)c3ccccc23)ccc1F)N1CCN(C(=O)C2CC2)CC1 + Cc1cnc(CNC(=O)c2c(=O)c3ccc(N4CCCN(C)CC4)nc3n3c2sc2ccccc23)cn1
Second compound 0.0316 µM
  IC50: 1380 nM
Second compound 0.1 µM
  IC50: < 31.6 nM
Second compound 0.316 µM
  IC50: < 31.6 nM
Second compound 1 µM
  IC50: < 31.6 nM
Second compound 3.16 µM
  IC50: < 31.6 nM
Second compound 10 µM
  IC50: < 31.6 nM
[1]
  viability, T/C: 113%
[2]
  viability, T/C: 106%
[3]
  viability, T/C: 98.9%
[4]
  viability, T/C: 58.9%
[5]
  viability, T/C: 23.3%
[6]
  viability, T/C: 4.08%
[7]
  viability, T/C: 33.8%
[8]
  viability, T/C: 26%
[9]
  viability, T/C: 22%
[10]
  viability, T/C: 17.1%
[11]
  viability, T/C: 8.17%
[12]
  viability, T/C: 4.33%
[13]
  viability, T/C: 13.5%
[14]
  viability, T/C: 11%
[15]
  viability, T/C: 9.09%
[16]
  viability, T/C: 7.84%
[17]
  viability, T/C: 3.87%
[18]
  viability, T/C: 2.13%
[19]
  viability, T/C: 5.15%
[20]
  viability, T/C: 5.03%
[21]
  viability, T/C: 4.87%
[22]
  viability, T/C: 4.62%
[23]
  viability, T/C: 3%
[24]
  viability, T/C: 1.77%
[25]
  viability, T/C: 3.25%
[26]
  viability, T/C: 5.08%
[27]
  viability, T/C: 3.5%
[28]
  viability, T/C: 2.42%
[29]
  viability, T/C: 0.47%
[30]
  viability, T/C: 0.13%
[31]
  viability, T/C: 0.11%
[32]
  viability, T/C: 0.34%
[33]
  viability, T/C: 0.18%
[34]
  viability, T/C: 0.14%
[35]
  viability, T/C: 0.16%
[36]
  viability, T/C: 0.58%
